Assay results from article PMC5750218, “Protein-inspired antibiotics active against vancomycin- and daptomycin-resistant bacteria” (Nature Communications, 2018).
In brackets after ≈: the same amount, converted by molar mass.

Legend:
[1] = system: cell-free particulate fraction of Bacillus megaterium KM (ATCC 13632); assay: Cell-free peptidoglycan inhibition assay; format: biochemical; details: cell free radiolabelled synthesis assay
Procedure: The cell-free particulate fraction of Bacillus megaterium KM (ATCC®13632™) was used to catalyse the polymerisation of peptidoglycan from UPD-linked precursors in vitro following literature procedures. B. megaterium was grown in the medium containing 1% (w/v) tryptone (Difco-Bacto), 0.5% (w/v) yeast extract (Difco-Bacto), 0.25% (w/v) K2HPO4 and 0.5% (w/v) glucose with pH 7.2. Bacteria were harvested when the density had reached to 0.4 mg dry weight mL^−1 and washed in the buffer 0.05 M Tris-HCl (pH 7.8) containing 10 mM MgCl2 by centrifugation at 6000 × g for 10 min at 4 °C. All subsequent manipulations were carried out on ice. The bacteria were resuspended in the same buffer at a density of 50 mg dry weight mL^−1, and then subjected to three freeze/thaw cycles. Bacteria were then homogenised by using a glass homogeniser at 4 °C (2 × 10 min). The broken cell suspension was centrifuged at 6000 × g for 10 min at 4 °C. […] Integrated density value (IDV) of each band on silica gel was analysed using AlphaEase FC software (AlphaImager 2200). The change of peptidoglycan or Lipid II were calculated as percent from the IDV values of the control (without any antibiotic or compound).

HEK293 cells = assay: Cytotoxicity MTT assay; format: cell-based, human
Procedure, shortened: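 Duplicate wells were used, with viability calculated against untreated and positive-control wells. Readout was MTT reduction: 2 h with 0.4 mg mL^−1 MTT, formazan dissolved in DMSO, absorbance at 570 nm. Before that, compound was applied 24 h at 37 °C over 100–0.046 µM (threefold dilutions) to HepG2 or HEK293 cells seeded 24 h earlier in DMEM/1% FBS.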

HepG2 cells = assay: Cytotoxicity MTT assay; format: cell-based, human
MRSA = MRSA in 50% human serum / 50% MHB
Procedure: The compounds, along with standard antibiotics were serially diluted twofold across the wells of 96-well non-binding surface (NBS) polystyrene plates (Corning 3641). […] Standards ranged from 64 to 0.03 µg mL^−1 and compounds from 8 to 0.003 µg mL^−1 with final assay volumes of 100 µL per well. Gram-positive bacteria were cultured in Mueller Hinton broth (MHB) (Bactolaboratories, Cat. no. 211443) at 37 °C overnight. A sample of each culture was then diluted 40-fold in fresh MHB and incubated at 37 °C for 2–3 h. […] All the plates were covered and incubated at 37 °C for 24 h. MICs were the lowest concentration showing no visible growth.
The compounds, along with standard antibiotics, tested in BMD-MIC assay as above, in the presence of a mixture of 50% human serum (Sigma-Aldrich) and 50% MHB.

| SMILES | Peptidoglycan formation, 14C-GlcNAc incorporation [1] | CC50 (HEK293 cells) [µM] | CC50 (HepG2 cells) [µM] | MIC +50% HS (MRSA) [µg/mL] |
| --- | --- | --- | --- | --- |
| CCCCCCCCCCCCCC(=O)N[C@@H](CCCCN)C(=O)N[C@@H](CCCCN)C(=O)N[C@@H](CCCCN)C(=O)N[C@@H](CCCCNC(=O)[C@H]1NC(=O)[C@H]2NC(=O)[C@H](NC(=O)[C@@H]3NC(=O)[C@H](CC(N)=O)NC(=O)[C@H](NC(=O)[C@@H](CC(C)C)NC)[C@H](O)c4ccc(c(Cl)c4)Oc4cc3cc(c4O[C@@H]3O[C@H](CO)[C@@H](O)[C@H](O)[C@H]3O[C@H]3C[C@](C)(N)[C@H](O)[C@H](C)O3)Oc3ccc(cc3Cl)[C@H]2O)c2ccc(O)c(c2)-c2c(O)cc(O)cc21)C(=O)O [Compound 17, nC13CO-KKK-K(Vancomycin)-OH] | inhibited peptidoglycan formation |  |  |  |
| CN[C@H]1C(=O)N[C@@H]2Cc3ccc(cc3)Oc3cc4cc(c3O[C@@H]3O[C@H](C(=O)O)[C@@H](O)[C@H](O)[C@H]3NC(=O)CCCCCCCCC(C)C)Oc3ccc(cc3Cl)[C@@H](O)[C@@H]3NC(=O)[C@H](NC(=O)[C@@H]4NC(=O)[C@@H](NC2=O)c2cc(cc(O)c2Cl)Oc2cc1ccc2O)c1ccc(O)c(c1)-c1c(O[C@H]2O[C@H](CO)[C@@H](O)[C@H](O)[C@@H]2O)cc(O)cc1[C@@H](C(=O)NCCCN(C)C)NC3=O [Compound 3, Dalbavancin] |  | 73 | 259 | 8 (≈ 4.4 µM) |
